Assay results from publication PMC11157491, “Novel Alaninamide Derivatives with Drug-like Potential for Development as Antiseizure and Antinociceptive Therapies—In Vitro and In Vivo Characterization” (ACS Chemical Neuroscience, 2024).

What was measured:
[1] = tested on: GABAA ion channel; experiment: GABAA ion channel [3H]GABA binding (agonist radioligand); settings: 100 μM, rat hippocampus
Method: (§1) Binding/functional studies were carried out commercially in Eurofins Laboratories (Poitiers, France) and Eurofins Panlabs Discovery Services Taiwan, Ltd. (New Taipei City, Taiwan) using testing procedures that were reported previously (for details, see Table S2).
(§2) Table S2. Radioligand binding and functional assays. […]
GABAA ion channel [3H]GABA (agonist radioligand)
(§3) Potassium channel (hERG) […]
(§4) Assays were performed commercially in Eurofins Laboratories ( Poitiers, France) or Eurofins Panlabs Discovery Services
(§5) Taiwan, Ltd. (New Taipei City, Taiwan).

[2] = tested on: mice; experiment: Streptozotocin (STZ)-induced peripheral neuropathy, von Frey test; assay type: in vivo; settings: 21 days after STZ
Method: In the first group, the initial value of 6.08 ± 0.29 (baseline) decreased to the value of 4.30 ± 0.21 (70.7% of the baseline). […] In the second group, the initial value of 6.08 ± 0.29 (baseline) decreased to the value of 5.02 ± 0.27 (82.6% of the baseline). The administration of 28 at a dose of 25 mg/kg elevated the pain threshold to the value of 7.69 ± 0.41, which corresponds with 126.5% of the baseline. In the third group, the baseline was decreased to the value of 5.35 ± 0.27 (88.0% of the baseline). The effect was not statistically significant. The administration of 28 at a dose of 50 mg/kg elevated the pain threshold to a value as high as 8.70 ± 0.41, which corresponds with 143.1% of the baseline.
(§6) The experimental groups consisted of 10 adult male Albino Swiss mice (CD-1, 18–25 g). Each animal was tested only once. Immediately after the assay, the animals were sacrificed by cervical dislocation. Behavioral measurements were observed by trained observers. The in vivo antinociceptive assays were in accordance with Polish regulations and the European Union Directive of 22 Sept 2010 (2010/63/EU). All procedures were carried out according to the rules of the International Council on Laboratory Animal Science (ICLAS) and were approved by the Local Ethics Committee in Cracow, Poland (104/2015, 279/2019, and 614/2022). The tested substances were suspended in a 1% aqueous solution of Tween 80 and were injected i.p. 30 min prior to the test. Control group animals (negative control) were administered with an appropriate amount of vehicle (Tween 80, 1% aqueous solution, i.p.) 30 min prior to the test. […] Before formalin application, different groups of animals were injected i.p. with vehicle (10 mL/kg, negative control). The in vivo procedure for the model of capsaicin-induced nociception was previously reported;[67] the animals were pretreated with vehicle (10 mL/kg, negative control), and the dose–response of investigated compounds was evaluated at 12.5, 25, and 50 mg/kg.
(§7) Data are presented as means ± standard error of the mean (SEM). GraphPad Prism Software (v.5) was used to analyze the vast majority of data. Statistically significant differences between groups were calculated using one-way analysis of variance (ANOVA) and the post hoc Dunnett’s multiple comparison test or two-way analysis of variance (ANOVA). The criterion for significance was set at p < 0.05. The log-probit method was applied to statistically determine the ED50 values with 95% confidence limits.

[3] = molecular target: T1, hERG potassium channel (Homo sapiens, UniProt Q12809); experiment: hERG potassium channel binding; settings: HEK-293 cells expressing human recombinant hERG, human recombinant HEK-293 cell, read-out: % inhibition of control specific binding
T1 construct: Eurofins (contract assay)
Description: Moreover, we also evaluated its influence on the potassium channel (hERG), which is known to be one of the most critical “off-targets” responsible for the harmful proarrhythmic activity of drugs and drug candidates.[56] […] The latter result is particularly important, since it minimizes the risk of potential proarrhythmic activity of 28. Despite this positive result, more detailed off-target profiling is undoubtedly necessary in the next steps of preclinical development.
as §1, §2, §3, §4, §5

[4] = tested on: mice; experiment: Oxaliplatin (OXPT)-induced peripheral neuropathy, von Frey test; assay type: in vivo
Method: The method is based on measuring the mean force that caused the paw withdrawal reaction, i.e., pain threshold. […] In the group treated with 28 at a dose of 25 mg/kg (Figure 6C), the initial value of 5.84 ± 0.43 (baseline) was decreased to the value of 2.78 ± 0.34 (47.6% of the baseline) and 3.39 ± 0.36 (58.0% of the baseline) in the early and late phases, respectively. […] In the group treated with the test compound at a dose of 75 mg/kg, the initial value of 6.17 ± 0.56 decreased to the values of 2.93 ± 0.45 (47.5% of the baseline) and 3.61 ± 0.28 (58.5% of the baseline) in the early and late phases, respectively.
as §6, §7

[5] = tested on: GABAA transporter; experiment: GABA transporter binding (antagonist radioligand); settings: 100 μM, rat cerebral cortex
Method: as §1, §2
GABA transporter (antagonist radioligand) […]
as §3, §4, §5

T1 sequence (Q12809 whole entry): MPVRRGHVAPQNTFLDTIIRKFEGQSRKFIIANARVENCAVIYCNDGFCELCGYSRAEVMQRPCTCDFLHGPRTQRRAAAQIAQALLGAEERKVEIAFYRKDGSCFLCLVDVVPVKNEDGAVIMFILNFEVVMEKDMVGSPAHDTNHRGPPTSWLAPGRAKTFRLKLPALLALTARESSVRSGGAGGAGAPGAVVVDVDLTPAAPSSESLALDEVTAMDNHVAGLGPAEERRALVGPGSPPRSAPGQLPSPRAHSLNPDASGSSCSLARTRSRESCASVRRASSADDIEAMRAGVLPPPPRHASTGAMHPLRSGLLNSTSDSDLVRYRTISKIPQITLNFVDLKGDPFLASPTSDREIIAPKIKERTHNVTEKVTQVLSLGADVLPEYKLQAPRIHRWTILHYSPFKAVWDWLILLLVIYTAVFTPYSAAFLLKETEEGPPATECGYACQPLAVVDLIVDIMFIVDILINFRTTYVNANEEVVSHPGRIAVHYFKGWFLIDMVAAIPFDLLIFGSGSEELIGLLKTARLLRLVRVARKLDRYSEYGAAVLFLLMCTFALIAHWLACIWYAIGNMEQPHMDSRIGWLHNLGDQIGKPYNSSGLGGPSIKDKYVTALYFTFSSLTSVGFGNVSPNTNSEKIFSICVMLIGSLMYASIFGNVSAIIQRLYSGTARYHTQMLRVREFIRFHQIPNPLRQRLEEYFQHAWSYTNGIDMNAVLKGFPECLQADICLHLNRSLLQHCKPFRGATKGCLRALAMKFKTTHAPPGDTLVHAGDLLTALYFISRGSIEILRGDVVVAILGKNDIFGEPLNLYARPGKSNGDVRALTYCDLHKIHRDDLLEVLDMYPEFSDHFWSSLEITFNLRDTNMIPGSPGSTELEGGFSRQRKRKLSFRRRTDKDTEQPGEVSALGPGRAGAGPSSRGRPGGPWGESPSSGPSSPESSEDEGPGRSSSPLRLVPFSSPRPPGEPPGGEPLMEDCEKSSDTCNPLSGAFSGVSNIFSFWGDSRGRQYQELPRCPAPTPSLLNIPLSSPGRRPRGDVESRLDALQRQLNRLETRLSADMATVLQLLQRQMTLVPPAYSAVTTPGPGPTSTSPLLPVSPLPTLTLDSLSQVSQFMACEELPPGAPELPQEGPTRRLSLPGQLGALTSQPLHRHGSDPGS

Compound: CC(=O)NC(C)C(=O)N1CCN(c2cccc(OC(F)(F)F)c2)CC1 (stereo not shown) [Compound 28, N-(1-oxo-1-(4-(3-(Trifluoromethoxy)phenyl)piperazin-1-yl)propan-2-yl)acetamide]
- % inhibition of control specific binding [1]: 10.0%
- pain threshold after compound, % of the baseline ([2]; 12.5 mg/kg): 100.0%
- pain threshold (von Frey) after compound ([2]; 25 mg/kg): 7.69 ± 0.41
- pain threshold after compound, % of the baseline ([2]; 25 mg/kg): 126.5%
- pain threshold (von Frey) after compound ([2]; 50 mg/kg): 8.70 ± 0.41
- pain threshold after compound, % of the baseline ([2]; 50 mg/kg): 143.1%
- inhibition at 100 µM [3]: 12.9%
- pain threshold after compound, % of the baseline ([4]; 25 mg/kg, early phase (3 h after OXPT)): 99.5%
- pain threshold after compound, % of the baseline ([4]; 50 mg/kg, early phase (3 h after OXPT)): 85.4%
- pain threshold after compound, % of the baseline ([4]; 50 mg/kg, late phase (7 days after OXPT)): 104.8%
- pain threshold after compound, % of the baseline ([4]; 75 mg/kg, early phase (3 h after OXPT)): 121.5%
- pain threshold after compound, % of the baseline ([4]; 75 mg/kg, late phase (7 days after OXPT)): 91.3%
- % inhibition of control specific binding [5]: 15.0%
